Test results as given in US20230174667A1 (priority 2020, published 2023).

Key:
NF-κB [1] = assay: Inhibition of SARS-CoV-2-induced NF-κB activation in A549/NF-κB-luc cells (luciferase); format: cell-based, human
[2] = tested on: heat-inactivated SARS-CoV-2; assay: Inhibition of SARS-CoV-2 uptake into RAW 264.7 murine macrophages (flow cytometry); format: cell-based; settings: co-administered with SARS-CoV-2
NF-κB [3] = assay: Inhibition of SARS-CoV-2-induced NF-κB activation in RAW 264.7/NF-κB-luc cells (luciferase); format: cell-based, murine; settings: same agents as in the RAW 264.7 uptake test

Row | Molecule | inhibition of SARS-CoV-2-induced NF-κB activation (percent inhibition, FIG. 5) (NF-κB [1]) | inhibition of SARS-CoV-2 cellular uptake (percent inhibition, FIG. 7) [2] | inhibition of SARS-CoV-2-induced NF-κB activation (percent inhibition, FIG. 8) (NF-κB [3])
1 | polyarginine: R8, amino acid sequence RRRRRRRR, synthesized by PepScan | significantly (p<0.05) inhibited |  | 
2 | TAT peptide: amino acid sequence YGRKKRRQRRR, synthesized by PepScan | significantly (p<0.05) inhibited |  | 
3 | Cn1c2ccccc2c2c3c(c4c5ccccc5n(CCC#N)c4c21)CNC3=O [Gö 6983, Gö 6976] | significantly (p<0.05) inhibited | significantly (p<0.05) inhibited | inhibited
4 | SPRRARSV peptide: SPRRARSV (Ser680-Val687, includes the PRRAR heparin-binding motif) from the S1 subunit of the SARS-CoV-2 spike protein | significantly (p<0.05) inhibited |  | 
5 | heparan sulfate | significantly (p<0.05) inhibited | significantly (p<0.05) inhibited | inhibited
6 | NC(N)=NC(=O)c1nc(Cl)c(N2CCCCCC2)nc1N [hexamethylene amiloride] | significantly (p<0.05) inhibited | significantly (p<0.05) inhibited | inhibited
7 | PRRAR peptide: PRRAR peptide from the heparin-binding motif of the S1 subunit of the SARS-CoV-2 spike protein (Pro681-Arg685) (UniProt P0DTC2 681-685, looked up, fragment) |  | significantly (p<0.05) inhibited | inhibited
8 | recombinant SDC4: recombinant SDC4, RnD Systems, Cat. no. 2918-SD (protein, UniProt P31431 19-198, looked up) Syndecan-4: ESIRETEVIDPQDLLEGRYFSGALPDDEDVVGPGQESDDFELSGSGDLDDLEDSMIGPEVVHPLVPLDNHIPERAGSGSQVPTEPKKLEENEVIPKRISPVEESEDVSNKVSMSSTVQGSNIFERTEVLAALIVGGIVGILFAVFLILLLMYRMKKKDEGSYDLGKKPIYKKAPTNEFYA | significantly (p<0.05) inhibited | significantly (p<0.05) inhibited | inhibited
